{
  "source": "the NIST ThermoML archive (doi:10.1016/j.tca.2016.07.019)",
  "experiment": "wn = mass fraction of the nth substance listed",
  "settings": "100 kPa, Liquid",
  "note": "± gives the expanded uncertainty stated by the source.",
  "data": [
    {"smiles": "O=C([O-])[C@@H]1CCCN1.[K+]", "note": "[potassium L-prolinate] + O", "values": [
      {"measurement": "mass density", "setting": "293.15 K, w1 = 0.01", "result": "1007.1 ± 2.3", "unit": "kg/m3"},
      {"measurement": "mass density", "setting": "293.15 K, w1 = 0.04", "result": "1023.4 ± 2.3", "unit": "kg/m3"},
      {"measurement": "mass density", "setting": "293.15 K, w1 = 0.1", "result": "1047.2 ± 2.4", "unit": "kg/m3"},
      {"measurement": "mass density", "setting": "303.15 K, w1 = 0.01", "result": "1004.3 ± 2.4", "unit": "kg/m3"},
      {"measurement": "mass density", "setting": "303.15 K, w1 = 0.04", "result": "1019.6 ± 2.4", "unit": "kg/m3"},
      {"measurement": "mass density", "setting": "303.15 K, w1 = 0.1", "result": "1042.8 ± 2.5", "unit": "kg/m3"},
      {"measurement": "mass density", "setting": "313.15 K, w1 = 0.01", "result": "1001.6 ± 2.5", "unit": "kg/m3"},
      {"measurement": "mass density", "setting": "313.15 K, w1 = 0.04", "result": "1016.1 ± 2.5", "unit": "kg/m3"},
      {"measurement": "mass density", "setting": "313.15 K, w1 = 0.1", "result": "1037.9 ± 2.6", "unit": "kg/m3"},
      {"measurement": "mass density", "setting": "323.15 K, w1 = 0.01", "result": "997.9 ± 2.6", "unit": "kg/m3"},
      {"measurement": "mass density", "setting": "323.15 K, w1 = 0.04", "result": "1009.5 ± 2.7", "unit": "kg/m3"},
      {"measurement": "mass density", "setting": "323.15 K, w1 = 0.1", "result": "1026.7 ± 2.8", "unit": "kg/m3"}
    ]}
  ]
}
